# Tested on: panel of nearly 500 cancer cell lines
# Assay: Cancer Cell Line Encyclopedia profiling, 3-day CellTiter-Glo
# Type: cell-based
# Conditions: Homo sapiens
smiles,measurement,setting,value
"CN(C)C(=O)c1cc2cnc(Nc3ccc(N4CCNCC4)cn3)nc2n1C1CCCC1 [Ribociclib, 7-cyclopentyl-2-(5-piperazin-1-yl-pyridin-2-ylamino)-7H-pyrrolo[2,3-d]pyrimidine-6-carboxylic acid dimethylamide]",IC50,SCC-9,> 8 µM
same,EC50,SCaBER,1.95 µM
same,IC50,SCaBER,> 8 µM
same,EC50,SF-126,> 8 µM
same,IC50,SF-126,> 8 µM
same,EC50,SF-295,0.323 µM
same,IC50,SF-295,> 8 µM
same,EC50,SHP77,> 8 µM
same,IC50,SHP77,> 8 µM
same,EC50,SIG-M5,0.0796 µM
same,IC50,SIG-M5,0.22 µM
same,EC50,SJRH30,> 8 µM
same,IC50,SJRH30,> 8 µM
same,EC50,SJSA-1,1.18 µM
same,IC50,SJSA-1,> 8 µM
same,EC50,SK-BR-3,> 8 µM
same,IC50,SK-BR-3,> 8 µM
same,EC50,SK-CO-1,2.76 µM
same,IC50,SK-CO-1,> 8 µM
same,EC50,SK-ES1,0.0436 µM
same,IC50,SK-ES1,> 8 µM
same,EC50,SK-HEP1,0.373 µM
same,IC50,SK-HEP1,> 8 µM
same,EC50,SK-LMS-1,1.26 µM
same,IC50,SK-LMS-1,> 8 µM
same,EC50,SK-LU-1,0.682 µM
same,IC50,SK-LU-1,> 8 µM
same,EC50,SK-MEL-2,> 8 µM
same,IC50,SK-MEL-2,> 8 µM
same,IC50,SK-MEL-5,> 8 µM
same,EC50,SK-MEL-24,> 8 µM
same,IC50,SK-MEL-24,> 8 µM
same,EC50,SK-MEL-30,> 8 µM
same,IC50,SK-MEL-30,> 8 µM
same,EC50,SK-MES-1,5.26 µM
same,IC50,SK-MES-1,5.27 µM
same,EC50,SK-MM-2,> 8 µM
same,IC50,SK-MM-2,> 8 µM
same,EC50,SK-N-AS,0.457 µM
same,IC50,SK-N-AS,> 8 µM
same,EC50,SK-N-DZ,0.88 µM
same,IC50,SK-N-DZ,3.44 µM
same,EC50,SK-N-SH,> 8 µM
same,IC50,SK-N-SH,7.74 µM
same,EC50,SK-OV-3,> 8 µM
same,IC50,SK-OV-3,> 8 µM
same,EC50,SKNBE2,0.328 µM
same,IC50,SKNBE2,1.8 µM
same,EC50,SNU1,2.4 µM
same,IC50,SNU1,> 8 µM
same,EC50,SNU-16,> 8 µM
same,IC50,SNU-16,> 8 µM
same,EC50,SNU-182,> 8 µM
same,IC50,SNU-182,> 8 µM
same,EC50,SNU-387,> 8 µM
same,IC50,SNU-387,> 8 µM
same,EC50,SNU-398,0.569 µM
same,IC50,SNU-398,> 8 µM
same,EC50,SNU-423,> 8 µM
same,IC50,SNU-423,> 8 µM
same,EC50,SNU-449,> 8 µM
same,IC50,SNU-449,> 8 µM
same,EC50,SNU-475,> 8 µM
same,IC50,SNU-475,> 8 µM
same,EC50,SNU-C2B,> 8 µM
same,IC50,SNU-C2B,> 8 µM
same,EC50,SU-DHL10,5.75 µM
same,IC50,SU-DHL10,5.75 µM
same,EC50,SU-DHL-4,0.329 µM
same,EC50,SU-DHL-6,0.742 µM
same,IC50,SU-DHL-6,> 8 µM
same,EC50,SU-DHL-8,1.6 µM
same,IC50,SU-DHL-8,3.73 µM
same,EC50,SU.86.86,> 8 µM
same,IC50,SU.86.86,> 8 µM
same,EC50,SUP-T1,> 8 µM
same,IC50,SUP-T1,> 8 µM
same,EC50,SW48,0.0194 µM
same,IC50,SW48,> 8 µM
same,EC50,SW480,6.21 µM
same,IC50,SW480,> 8 µM
same,EC50,SW780,0.159 µM
same,IC50,SW780,> 8 µM
same,EC50,SW900,0.385 µM
same,IC50,SW900,> 8 µM
same,EC50,SW1088,> 8 µM
same,IC50,SW1088,> 8 µM
same,EC50,SW1353,> 8 µM
same,IC50,SW1353,> 8 µM
same,EC50,SW1417,> 8 µM
same,IC50,SW1417,> 8 µM
same,EC50,SW1573,0.324 µM
same,IC50,SW1573,> 8 µM
same,EC50,SW1990,0.593 µM
same,IC50,SW1990,> 8 µM
same,EC50,SW-403,> 8 µM
same,IC50,SW-403,4.34 µM
same,EC50,SW-620,0.45 µM
same,IC50,SW-620,> 8 µM
same,EC50,T47D,> 8 µM
same,IC50,T47D,> 8 µM
same,EC50,T98G,> 8 µM
same,IC50,T98G,> 8 µM

# From paper PMC6219668 (Oncotarget, 2018)
